In ChEMBL document CHEMBL1201862, “PubChem BioAssay data set” (2004):
Activity calls are given as the source filed them.

How the values were obtained:
Nonstructural protein 1 = Nonstructural protein 1 (Influenza A virus, UniProt Q194T2); assay type: functional, Influenza A virus (A/California/07/2009(H1N1))
[1] = molecular target: Luciferin 4-monooxygenase (Photinus pyralis, UniProt P08659); assay: firefly luciferase enzyme inhibitors, dose response, biochemical, luminescence (AID 1891)
[2] = Luminescence Cell-Based Dose Confirmation HTS to Identify Inhibitors of Platelet Dense Granule Release. [Related pubchem assays: 1663 (Primary HTS), 1678 (Summary of Project)]; assay type: functional
BJ [3] = assay: cytotoxicity toward BJ-TERT fibroblasts, dose response, cell-based, RAS-independent, luminescence (AID 1933); assay type: functional; details: Homo sapiens
BJ [4] = assay: cells; assay type: functional, cell-based; details: Homo sapiens
[5] = C. albicans growth with fluconazole, confirmation, fluorescence, retest (AID 2467); assay type: functional, cell-based
BJ [6] = assay: cytotoxicity toward BJ-TERT-LT-ST fibroblasts, dose response, cell-based, RAS-independent, luminescence (AID 1935); assay type: functional; details: Homo sapiens;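 also: BJ fibroblasts immortalized with TERT plus LT and ST oncogenes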
[7] = cytotoxicity toward DRD oncogenic fibroblasts, dose response, cell-based, non-viral oncogenic, luminescence (AID 1934); assay type: functional; details: Homo sapiens
P388/ADR = assay: cells; assay type: functional; details: Mus musculus
SN12K1 = assay: cells; assay type: functional; details: Homo sapiens
P388 = assay: cells; assay type: functional; details: Mus musculus
[8] = NIH-3T3 fibroblast cytotoxicity, dose response, cytotoxicity control, cell-based, fluorescence, Alamar Blue, secondary assay (AID 2327); assay type: functional;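 also: NIH-3T3 mouse fibroblasts cultured with fluconazole at 8 µg/mL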
cells [9] = assay type: functional, cell-based
cells [10] = assay type: functional, cell-based; remark: listed apart in the source
[11] = molecular target: T1, Polyadenylate-binding protein 1 (Homo sapiens, UniProt P11940); assay: PABP1 MLLE–PAM2 interaction inhibitors, dose response, miRNA deadenylation inhibitor project, biochemical, fluorescence polarization, Cy5-PAM2 peptide, secondary (AID 602260); assay type: functional; details: read-out: IC50_Mean
T1 sequence (P11940 whole entry): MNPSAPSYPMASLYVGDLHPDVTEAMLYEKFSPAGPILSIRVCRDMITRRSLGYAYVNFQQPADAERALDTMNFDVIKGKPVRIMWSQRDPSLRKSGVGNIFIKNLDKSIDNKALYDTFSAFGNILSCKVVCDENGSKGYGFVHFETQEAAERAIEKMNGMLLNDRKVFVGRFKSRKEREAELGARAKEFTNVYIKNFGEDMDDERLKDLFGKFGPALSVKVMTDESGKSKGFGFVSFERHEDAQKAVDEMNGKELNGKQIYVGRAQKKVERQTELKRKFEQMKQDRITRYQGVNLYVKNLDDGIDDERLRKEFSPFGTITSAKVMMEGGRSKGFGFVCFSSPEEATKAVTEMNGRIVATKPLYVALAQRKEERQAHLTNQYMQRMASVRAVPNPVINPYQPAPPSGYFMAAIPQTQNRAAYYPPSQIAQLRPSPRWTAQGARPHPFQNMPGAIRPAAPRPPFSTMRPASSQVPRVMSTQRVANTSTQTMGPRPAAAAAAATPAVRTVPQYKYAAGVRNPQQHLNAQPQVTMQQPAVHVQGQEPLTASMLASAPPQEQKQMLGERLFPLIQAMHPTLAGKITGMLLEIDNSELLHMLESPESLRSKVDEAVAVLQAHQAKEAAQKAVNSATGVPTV

[12] = molecular target: T1, Polyadenylate-binding protein 1; assay: PABP1 MLLE–PAM2 binding inhibitor potency, dose response, biochemical, fluorescence polarization, FITC-PAM2 peptide (AID 602259); assay type: functional; details: read-out: IC50_Mean
[13] = molecular target: FAD-linked sulfhydryl oxidase ALR (Homo sapiens, UniProt P55789); assay: inhibitors of human ALR sulfhydryl oxidase, dose response, biochemical, H2O2 detection, luminescence, cherry-pick (AID 493248)
FAD-linked sulfhydryl oxidase ALR, sequence (P55789 whole entry): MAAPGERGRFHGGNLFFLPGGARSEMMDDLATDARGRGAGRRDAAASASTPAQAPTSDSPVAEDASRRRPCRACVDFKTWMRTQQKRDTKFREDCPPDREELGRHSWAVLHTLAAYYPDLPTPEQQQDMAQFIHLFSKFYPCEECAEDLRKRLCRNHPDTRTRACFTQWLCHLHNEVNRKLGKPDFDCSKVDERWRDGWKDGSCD

[14] = molecular target: T2, Ubiquitin-conjugating enzyme E2 N (Homo sapiens, UniProt P61088); assay type: functional;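 also: Dose-response confirmation in a TR-FRET assay detecting UBC13-driven polyubiquitin chain formation, inhibition measured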
T2 sequence (P61088 whole entry): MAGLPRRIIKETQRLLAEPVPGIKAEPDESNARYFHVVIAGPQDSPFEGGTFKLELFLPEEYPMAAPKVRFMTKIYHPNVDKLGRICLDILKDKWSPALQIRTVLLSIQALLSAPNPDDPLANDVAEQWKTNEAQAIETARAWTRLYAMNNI

[15] = HEp-2 cell cytotoxicity, dose response, cytotoxicity control for RSV inhibitor project, HTS (AID 2410); assay type: functional; details: human respiratory syncytial virus
Large T antigen = Large T antigen (Simian virus 40, UniProt P03070); assay type: functional, Betapolyomavirus macacae;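 also: Confirmatory-stage PubChem screen for compounds that inhibit SV40 T antigen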
Large T antigen, sequence (P03070 whole entry): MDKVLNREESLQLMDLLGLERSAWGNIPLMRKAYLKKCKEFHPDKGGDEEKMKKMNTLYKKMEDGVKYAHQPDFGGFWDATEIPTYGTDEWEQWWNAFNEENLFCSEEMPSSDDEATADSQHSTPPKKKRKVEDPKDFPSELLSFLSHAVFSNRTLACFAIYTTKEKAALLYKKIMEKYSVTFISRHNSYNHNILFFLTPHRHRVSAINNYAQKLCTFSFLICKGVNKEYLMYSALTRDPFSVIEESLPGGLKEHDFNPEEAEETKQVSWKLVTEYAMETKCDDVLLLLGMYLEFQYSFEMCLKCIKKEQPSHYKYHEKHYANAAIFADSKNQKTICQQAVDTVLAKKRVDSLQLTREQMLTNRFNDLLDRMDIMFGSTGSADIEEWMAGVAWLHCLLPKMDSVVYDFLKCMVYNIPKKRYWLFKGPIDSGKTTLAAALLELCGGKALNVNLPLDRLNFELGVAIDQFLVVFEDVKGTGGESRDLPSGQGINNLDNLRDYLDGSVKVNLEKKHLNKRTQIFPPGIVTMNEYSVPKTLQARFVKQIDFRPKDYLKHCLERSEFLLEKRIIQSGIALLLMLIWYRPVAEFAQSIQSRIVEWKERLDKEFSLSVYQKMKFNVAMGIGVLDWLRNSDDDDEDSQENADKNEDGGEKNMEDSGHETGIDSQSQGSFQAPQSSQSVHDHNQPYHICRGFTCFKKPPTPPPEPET

Nonstructural protein 1, sequence (Q194T2 whole entry): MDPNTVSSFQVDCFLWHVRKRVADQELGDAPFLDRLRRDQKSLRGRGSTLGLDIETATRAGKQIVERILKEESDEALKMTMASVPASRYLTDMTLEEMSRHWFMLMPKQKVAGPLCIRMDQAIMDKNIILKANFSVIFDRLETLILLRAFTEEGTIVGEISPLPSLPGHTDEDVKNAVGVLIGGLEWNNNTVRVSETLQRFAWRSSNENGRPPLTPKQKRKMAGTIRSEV
Luciferin 4-monooxygenase, sequence (P08659 whole entry): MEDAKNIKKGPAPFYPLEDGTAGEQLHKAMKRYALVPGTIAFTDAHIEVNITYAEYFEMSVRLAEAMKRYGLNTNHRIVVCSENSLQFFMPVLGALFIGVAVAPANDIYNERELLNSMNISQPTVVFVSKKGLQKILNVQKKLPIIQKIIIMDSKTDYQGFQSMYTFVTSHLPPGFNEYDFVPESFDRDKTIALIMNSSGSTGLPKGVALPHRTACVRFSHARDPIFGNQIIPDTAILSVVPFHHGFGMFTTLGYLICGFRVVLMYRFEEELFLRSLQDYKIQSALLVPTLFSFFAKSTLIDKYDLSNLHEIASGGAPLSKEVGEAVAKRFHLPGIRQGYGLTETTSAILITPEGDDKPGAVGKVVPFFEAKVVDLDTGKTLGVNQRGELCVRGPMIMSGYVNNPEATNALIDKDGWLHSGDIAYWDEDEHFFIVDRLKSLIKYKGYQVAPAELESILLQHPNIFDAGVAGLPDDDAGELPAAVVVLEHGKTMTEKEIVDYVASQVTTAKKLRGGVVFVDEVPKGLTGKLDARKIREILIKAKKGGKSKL

For Cc1cc(C)cc(NC2=C(N)C(=O)c3ccccc3C2=O)c1, the IC50 (Nonstructural protein 1) was 37.3 µM (active).
In the case of O=C(CSc1nc(-c2ccccc2)cs1)NCc1ccco1, the EC50 [1] is reported as > 112 µM (not active) and the EC50 [2] is reported as > 112 µM (not active).
For O=C1/C(=C\c2cccnc2)SC(=S)N1C1CCS(=O)(=O)C1 (stereo not drawn), the EC50 (BJ [3]) was 22.5 µM (active), the EC50 (BJ [4]) was > 150 µM (inconclusive) and the EC50 [5] was 0.479 µM (active). For the same compound, the EC50 (BJ [6]) was > 150 µM (not active) and the EC50 [7] was 20.4 µM (active).
For CC(=O)Nc1cccc(NC(=O)CSc2nn3c(=O)c(C)nnc3s2)c1, the IC50 (Nonstructural protein 1) was 9.96 µM (active).
With Cc1ccc(S(=O)(=O)CCc2nnc(NC(=O)c3ccccn3)s2)cc1 the IC50 (Nonstructural protein 1) was 10.2 µM (active).
For O=C(C1CCCN(S(=O)(=O)c2cccc3nonc23)C1)N1CCN(c2ccccc2Cl)CC1 (stereo not drawn), the IC50 (Nonstructural protein 1) was > 100 µM (active).
In the case of N#C/C(=C\c1ccc(O)cc1)C(N)=O, the GI50 (P388/ADR) is reported as > 100 µM (inactive), the GI50 (SN12K1) is reported as > 100 µM (inactive) and the GI50 (P388) is reported as > 100 µM (inactive).
For Cc1ccc(NC(=O)NNC(=O)c2cc3ccccc3cc2O)cc1C, the EC50 [8] was > 160 µM (inactive) and the EC50 [5] was > 38 µM (not active).
In the case of CC1(C)CC(=O)C(/C=N/CCN2CCN(C(=S)Nc3cccc(Cl)c3)CC2)=C(O)C1, the EC50 (cells [9]) is reported as > 350 µM (not active) and the EC50 (cells [10]) is reported as > 350 µM (not active).
In the case of CCC(NCc1cc(OC)cc(OC)c1)=C1C(=O)NC(=O)NC1=O, the EC50 (cells [9]) is reported as > 350 µM (not active) and the EC50 (cells [10]) is reported as > 350 µM (not active).
With COC(=O)c1sccc1NC(=O)Nc1ccc(F)cc1 the EC50 [1] was 0.535 µM (active) and the EC50 [2] was 1.67 µM (active).
In the case of NC(=O)c1cc2c3ccccc3ccn2c1-c1ccccc1, the EC50 (BJ [3]) is reported as 0.305 µM (active), the EC50 (BJ [4]) is reported as 27.4 µM (inconclusive) and the EC50 (BJ [6]) is reported as 5.08 µM (inconclusive). The EC50 [7] was 0.244 µM (active), the IC50 [11] was > 66 µM (inactive) and the IC50 [12] was 32.2 µM (inactive).
For Cc1nc(C#N)c(N/N=C/c2c(F)cccc2Cl)o1, the AC50 [13] was 2.54 µM (active).
In the case of O=C(NNC(=O)C1CCN(S(=O)(=O)c2ccc(Cl)cc2)CC1)c1ccc(S(=O)(=O)N2CCCCC2)cc1, the IC50 [14] is reported as > 20 µM (inactive).
With Cc1cc(OC(=O)c2ccco2)c2c3c(c(=O)oc2c1)CCCC3 the EC50 [8] was > 160 µM (inactive), the CC50 [15] was 33.1 µM (active) and the EC50 [5] was 5.16 µM (active).
With COc1ccc2[nH]cc(/C=C(/C)c3ccncc3)c2c1 the GI50 (P388/ADR) was 2.99 µM (inactive), the GI50 (SN12K1) was 16 µM (inactive) and the GI50 (P388) was 3.07 µM (inactive).
With O=C(N/N=C/c1ccc(O)c(O)c1)C1CC1 the IC50 (Large T antigen) was 5.55 µM (active) and the AC50 [13] was 0.127 µM (active).
For CSCC[C@@H]1C(=O)N(C)[C@H](C(C)(C)C)N1C(=O)c1ccccc1, the GI50 (SN12K1) was > 100 µM (inactive) and the GI50 (P388) was > 100 µM (inactive).
With O=C(NCCCN1CCOCC1)c1ccc2c(=O)n(Cc3cccc(Br)c3)c(=S)[nH]c2c1 the IC50 [14] was > 20 µM (inactive).
With CCOc1ccccc1-c1nc(C(N)=O)c2nc(O)n(-c3ccc(F)cc3)c2n1 the IC50 [14] was > 20 µM (inactive).
With CCc1ccc(C(=O)Nn2c(C)nc3ccccc3c2=O)cc1 the IC50 [14] was > 20 µM (inactive).
In the case of COc1nnc(-c2ccccc2)s1, the IC50 [11] is reported as > 66 µM (inactive) and the IC50 [12] is reported as > 66 µM (inactive).
In the case of COc1ccc(C2C3CCCC(C3=O)C(c3ccc(OC)cc3)N2N=O)cc1 (stereo not drawn), the GI50 (P388/ADR) is reported as 17.9 µM (inactive), the GI50 (SN12K1) is reported as 30.5 µM (inactive) and the GI50 (P388) is reported as 19.9 µM (inactive).
